Laboratory results as given in patent US20240024266A1, “Therapeutic Agent or Prophylactic Agent for COVID-19” (priority 2020, published 2024).

system: SARS-CoV-2; assay: Confirmation test of suppressing effect against SARS-CoV-2 proliferation (nucleocapsid Western blotting, VeroE6/TMPRSS2 cells); assay type: cell-based; conditions: 20 μM Pin1 inhibitor, VeroE6/TMPRSS2 cells, MOI 10, cell lysate 8 hours after infection, nucleocapsid band area vs no inhibitor

Row | Structure (SMILES) | Inhibition Rate [%]
1 | O=C(Nc1ccc(OCc2ccc3ccccc3c2)cc1C(=O)O)c1ccc2ccccc2c1 [H-371] | 99
2 | O=C(Nc1ccc(OCc2ccc3ccccc3c2)cc1C(=O)O)c1ccc2ccccc2c1 [H-487] | 63
3 | Nc1cc(NC(=O)C2c3ccccc3-c3ccccc32)cc(C(=O)OCc2ccccc2)c1 [H-755-2] | 75

same assay, conditions: Severe acute respiratory syndrome coronavirus 2, VeroE6/TMPRSS2, 8 h, 20 μM Pin1 inhibitor, VeroE6/TMPRSS2 cells, MOI 10, cell lysate 8 hours after infection, nucleocapsid band area vs no inhibitor; read-out: Inhibition Rate

Row | Structure (SMILES) | inhibition at 20 µM [%]
4 | O=C(O[C@H](Cc1ccc2ccccc2c1)C(=O)O)c1ccc2ccccc2c1 [H-30] | 99
5 | COc1ccc(-c2cc(C(=O)O[C@H](Cc3ccc4ccccc4c3)C(=O)O)c(C)o2)cc1 [H-32] | 86
6 | O=C(O[C@H](Cc1ccc2ccccc2c1)C(=O)O)c1ccc(-c2ccccc2)cc1 [H-33] | 100
7 | O=C(Nc1ccc(OCc2ccccc2)cc1C(=O)O)OCc1ccccc1 [H-78] | 96
8 | O=C(N[C@H](Cc1c[nH]c2ccccc12)C(=O)O)OCC1c2ccccc2-c2ccccc21 [H-95] | 95
9 | O=C(CC1c2ccccc2-c2ccccc21)N[C@H](Cc1ccc2ccccc2c1)C(=O)O [H-103] | 100
10 | O=C(N[C@H](Cc1ccc2ccccc2c1)C(=O)OCc1ccccc1)C1c2ccccc2-c2ccccc21 [H-105] | 100
11 | O=C(CC1c2ccccc2-c2ccccc21)O[C@H](Cc1ccc2ccccc2c1)C(=O)O [H-106] | 100
12 | O=C(O[C@H](Cc1ccc2ccccc2c1)C(=O)O)c1ccc(Oc2ccccc2)cc1 [H-123] | 99
13 | O=C(O[C@H](Cc1ccc2ccccc2c1)C(=O)O)c1cccc(Oc2ccccc2)c1 [H-130] | 100
14 | O=C(O[C@H](Cc1ccc2ccccc2c1)C(=O)O)c1ccccc1Oc1ccccc1 [H-132] | 99
15 | O=C(O[C@H](Cc1ccc2ccccc2c1)C(=O)O)C(c1ccccc1)c1ccccc1 [H-134] | 98
16 | O=C(Cc1ccc2ccccc2c1)O[C@H](Cc1ccc2ccccc2c1)C(=O)O [H-149] | 99
17 | O=C(Cc1cccc2ccccc12)O[C@H](Cc1ccc2ccccc2c1)C(=O)O [H-151] | 98
18 | O=C(O)[C@@H](Cc1ccc2ccccc2c1)OC(=O)N1c2ccccc2Oc2ccccc21 [H-157] | 100
19 | O=C(O)[C@@H](Cc1ccc2ccccc2c1)NC(=O)N1c2ccccc2Oc2ccccc21 [H-162] | 99
20 | O=C(O)[C@@H](Cc1ccc2ccccc2c1)OC(=O)n1c2ccccc2c2ccccc21 [H-175] | 100
21 | O=C(COc1ccc2ccccc2c1)O[C@H](Cc1ccc2ccccc2c1)C(=O)O [H-177] | 99
22 | O=C(COc1cccc2ccccc12)O[C@H](Cc1ccc2ccccc2c1)C(=O)O [H-179] | 97
23 | O=C(O)[C@@H](Cc1ccc2ccccc2c1)OCc1ccc2ccccc2c1 [H-181] | 99
24 | COc1cc(OC)cc(C(=O)O[C@H](Cc2ccc3ccccc3c2)C(=O)O)c1 [H-198] | 67
25 | O=C(O[C@H](Cc1ccc2ccccc2c1)C(=O)O)c1cc(Cl)cc(Cl)c1 [H-200] | 98
26 | Cc1cc(C)cc(C(=O)O[C@H](Cc2ccc3ccccc3c2)C(=O)O)c1 [H-210] | 99
27 | CC(C)(C)OC(=O)N[C@@H](Cc1ccccc1)C(=O)O[C@H](Cc1ccc2ccccc2c1)C(=O)O [H-248] | 88
28 | COc1ccc2c(c1)C(C(=O)O[C@H](Cc1ccc3ccccc3c1)C(=O)O)c1ccccc1-2 (stereo partly drawn) [H-254] | 94
29 | O=C(O[C@H](Cc1ccc2ccccc2c1)C(=O)O)C1c2ccccc2-c2ccc(F)cc21 (stereo partly drawn) [H-262] | 94

Row | Structure (SMILES) | inhibition at 20 µM [%]
30 | O=C(O[C@H](Cc1ccc2ccccc2c1)C(=O)O)C1c2ccccc2-c2ccc(Cl)cc21 (stereo partly drawn) [H-263] | 54
31 | O=C(O[C@H](Cc1ccc2ccccc2c1)C(=O)O)c1ccc(Cl)c(Cl)c1 [H-269] | 98
32 | O=C(O)[C@@H](Cc1ccc(OCc2ccccc2)cc1)NC(=O)N1c2ccccc2Oc2ccccc21 [H-336] | 98
33 | O=C(O)[C@@H](Cc1ccc(OCc2ccccc2)cc1)NC(=O)n1c2ccccc2c2ccccc21 [H-337] | 100
34 | O=C(O)c1cc(OCc2ccccc2)ccc1NS(=O)(=O)c1ccc2ccccc2c1 [H-338] | 99
35 | O=C(Nc1ccc(OCc2ccccc2)cc1C(=O)O)c1ccc2ccccc2n1 [H-339] | 76
36 | O=C(O)[C@H](NC(=O)n1c2ccccc2c2ccccc21)c1ccccc1 [H-348] | 81
37 | O=C(COc1ccc2ccccc2c1)Nc1ccc(OCc2ccccc2)cc1C(=O)O [H-362] | 99
38 | O=C(Nc1ccc(OCc2ccccc2)cc1C(=O)O)c1cccc(Oc2ccccc2)c1 [H-363] | 99
39 | O=C(O)c1cc(OCc2ccccc2)ccc1NC(=O)c1cccc2ccccc12 [H-370] | 98
40 | COC(=O)[C@@H](Cc1ccc2ccccc2c1)NC(=O)n1c2ccccc2c2ccccc21 [H-393] | 80
41 | O=C(Nc1ccc(OCc2ccccc2)cc1C(=O)O)c1ccc2ccccc2c1 [H-429] | 99
42 | O=C(O[C@H](Cc1cccc2ccccc12)C(=O)O)c1ccc2ccccc2c1 [H-438] | 99
43 | O=C(O)c1cc(OCc2ccc3ccccc3c2)c(C(=O)O)cc1OCc1ccc2ccccc2c1 [H-444] | 55
44 | O=C(Nc1ccc(OCc2ccc3ccccc3c2)c(C(=O)O)c1)c1ccc2ccccc2c1 [H-448] | 100
45 | O=C(O[C@H](Cc1ccc2ccccc2c1)C(=O)O)c1cccc2ccccc12 [H-452] | 52
46 | O=C(O)[C@@H](Cc1ccc2ccccc2c1)OCc1ccccc1Oc1ccccc1 [H-464] | 100
47 | O=C(O)c1cc(OCc2ccc3ccccc3c2)ccc1OCc1ccc2ccccc2c1 [H-488] | 100
48 | O=C(O)c1ccc(OCc2ccc3ccccc3c2)cc1OCc1ccc2ccccc2c1 [H-489] | 99
49 | O=C(O)c1cc(OCc2ccc3ccccc3c2)cc(OCc2ccc3ccccc3c2)c1 [H-491] | 91
50 | O=C(O)CCC(Cc1ccc2ccccc2c1)OC(=O)c1ccc2ccccc2c1 (stereo not drawn) [H-507] | 99
51 | O=C(O)[C@@H](Cc1cccc2ccccc12)NC(=O)n1c2ccccc2c2ccccc21 [H-509] | 98
52 | COc1ccc2cc(CC(OC(=O)c3ccc4ccccc4c3)C(=O)O)ccc2c1 (stereo not drawn) [H-512] | 90
53 | O=C(O)CC(Cc1ccc2ccccc2c1)OC(=O)c1ccc2ccccc2c1 (stereo not drawn) [H-514] | 99
54 | O=C(Cn1c2ccccc2c2ccccc21)N[C@H](Cc1ccc2ccccc2c1)C(=O)O [H-536] | 75
55 | O=C(O)c1cc(NC(=O)n2c3ccccc3c3ccccc32)cc(NC(=O)n2c3ccccc3c3ccccc32)c1 [H-596] | 99

Row | Structure (SMILES) | inhibition at 20 µM [%]
56 | O=C(O[C@H](Cc1ccc2ccccc2c1)C(=O)O)C1c2ccccc2-c2ccccc21 [H-614] | 96
57 | O=C(N[C@@H](CCCN1C(=O)c2ccccc2C1=O)C(=O)O)C1c2ccccc2-c2ccccc21 [H-619] | 94
58 | COC(=O)c1cc(NC(=O)c2ccc3ccccc3c2)c[n+](Cc2ccc3ccccc3c2)c1 [H-626] | 88
59 | O=C(C/C(=C\c1ccc2ccccc2c1)C(=O)O)NC1c2ccccc2-c2ccccc21 [H-644] | 95
60 | COC(=O)/C(=C/c1ccc2c(c1)OCO2)CC(=O)Nc1cccc2ccccc12 [H-669] | 64
61 | O=C(CC(Cc1ccc2c(c1)OCO2)C(=O)O)Nc1cccc2ccccc12 (stereo not drawn) [H-674] | 50
62 | CC(C)(C)OC(=O)Nc1cc(NC(=O)n2c3ccccc3c3ccccc32)cc(C(=O)O)c1 [H-678] | 87
63 | COC(=O)c1cc(NC(=O)c2cccnc2)cc(NC(=O)n2c3ccccc3c3ccccc32)c1 [H-680] | 53
64 | COC(=O)c1cc(NC(=O)c2ccc3ccccc3n2)cc(NC(=O)n2c3ccccc3c3ccccc32)c1 [H-684] | 66
65 | COC(=O)c1cc(NC(=O)c2cnc3ccccc3n2)cc(NC(=O)n2c3ccccc3c3ccccc32)c1 [H-685] | 58
66 | O=C(O)c1cc(NC(=O)c2cnc3ccccc3n2)cc(NC(=O)n2c3ccccc3c3ccccc32)c1 [H-691] | 52
67 | O=C(O)c1cc(NC(=O)C2COc3ccccc3O2)cc(NC(=O)n2c3ccccc3c3ccccc32)c1 (stereo not drawn) [H-693] | 77
68 | COC(=O)c1cc(NC(C)=O)cc(NC(=O)n2c3ccccc3c3ccccc32)c1 [H-696-2] | 98
69 | COC(=O)[C@H](CCCNC(=O)c1cccnc1)NC(=O)n1c2ccccc2c2ccccc21 [H-707] | 55
70 | O=C(NCCC[C@H](NC(=O)n1c2ccccc2c2ccccc21)C(=O)O)c1cccnc1 [H-708] | 62
71 | O=C(NCCC[C@H](NC(=O)C1c2ccccc2-c2ccccc21)C(=O)O)c1cccnc1 [H-715] | 63
72 | O=C(NCCC[C@H](NC(=O)n1c2ccccc2c2ccccc21)C(=O)O)c1ccc2ccccc2c1 [H-717] | 87
73 | COC(=O)c1cc(N)cc(NC(=O)N(c2ccccc2)c2ccccc2)c1 [H-725-2] | 81
74 | Nc1cc(NC(=O)N(c2ccccc2)c2ccccc2)cc(C(=O)O)c1 [H-727] | 50
75 | COC(=O)/C(=C/c1ccc2ccccc2c1)CC(=O)N1CCCc2ccccc21 [H-739] | 51
76 | O=C(O)/C(=C/c1ccc2ccccc2c1)CC(=O)N1CCc2ccccc2C1 [H-742] | 57
77 | O=C(O)/C(=C/c1ccc2ccccc2c1)CC(=O)N1CCCc2ccccc21 [H-743] | 59
78 | Nc1cc(NC(=O)C2c3ccccc3-c3ccccc32)cc(C(=O)OCc2ccccc2)c1 [H-755] | 78
79 | COC(=O)c1cc(NC(=O)COc2ccccn2)cc(NC(=O)n2c3ccccc3c3ccccc32)c1 [H-762] | 83
80 | O=C(COc1ccccn1)Nc1cc(NC(=O)n2c3ccccc3c3ccccc32)cc(C(=O)O)c1 [H-763] | 97

same assay, conditions: Severe acute respiratory syndrome coronavirus 2, VeroE6/TMPRSS2, 8 h, read-out: Inhibition Rate

Row | Structure (SMILES) | inhibition at 20 µM [%]
81 | COP(=O)(OC)OCC(COc1cccc2ccccc12)OCc1ccc2ccccc2c1 (stereo not drawn) [H-546] | 83
